Test results from patent US6747049B2, “Oxazole derivatives” (Hoffmann-La Roche Inc., priority 2002, dated 2004).

Legend:
PPARγ [1] = molecular target: T1, PPARγ (Mus musculus, UniProt P37238); experiment: Luciferase transcriptional reporter gene assay, pFA-PPARγ-LBD in BHK21 cells; type: cell-based; details: Gal4-PPARγ-LBD luciferase reporter, 24 hours incubation
T1 construct: expressed in transfected cells; host or cells: BHK21 (ATCC CCL10)
T1 sequence (P37238 174-475 isoform P37238-2): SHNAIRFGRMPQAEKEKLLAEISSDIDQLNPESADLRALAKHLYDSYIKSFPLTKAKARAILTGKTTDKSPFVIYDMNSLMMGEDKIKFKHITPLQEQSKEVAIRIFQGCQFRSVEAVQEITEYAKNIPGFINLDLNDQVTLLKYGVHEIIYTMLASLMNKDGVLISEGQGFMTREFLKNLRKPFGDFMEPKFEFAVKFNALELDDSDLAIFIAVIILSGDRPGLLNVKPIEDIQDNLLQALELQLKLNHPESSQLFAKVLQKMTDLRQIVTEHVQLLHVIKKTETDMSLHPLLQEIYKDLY
Excerpt: (§1) Full-length cDNA clones for human PPARα and mouse PPARγ were obtained by RT-PCR from human adipose and mouse liver cRNA, respectively, cloned into plasmid vectors and verified by DNA sequencing. Bacterial and mammalian expression vectors were constructed to produce glutathione-s-transferase (GST) and Gal4 DNA binding domain proteins fused to the ligand binding domains (LBD) of PPARγ (aa 174 to 476) and PPARα (aa 167 to 469). To accomplish this, the portions of the cloned sequences encoding the LBDs were amplified from the full-length clones by PCR and then subcloned into the plasmid vectors. Final clones were verified by DNA sequence analysis.
(§2) Luciferase Transcriptional Reporter Gene Assays
(§3) Baby hamster kidney cells (BHK21 ATCC CCL10) were grown in DMEM medium containing 10% FBS at 37° C. in a 95%[…]:5%CO2 atmosphere. Cells were seeded in 6 well plates at a density of 10^5 Cells/well and then batch-transfected with either the pFA-PPARγ-LBD or pFA-PPARα-LBD expression plasmids plus the pFR-luc reporter plasmid and an expression plasmid encoding the secretable form of alkaline phosphatase (SEAP) as a normalization control. […] Six hours following transfection, the cells were harvested by trypsinization and seeded in 96 well plates at a density of 10^4 cells/well. After 24 hours to allow attachment of cells, the medium was removed and replaced with 100 ul of phenol red-free medium containing the test substances or control ligands (final. 0.1% DMSO). Following incubation of the cells for 24 hours with substances, 50 ul of the supernatant was recovered and analyzed for SEAP activity (Roche Molecular Biochemicals). The remainder of the supernatant was discarded, 50 ul PBS was added per well followed by one volume of Luciferase Constant-Light Reagent (Roche Molecular Biochemicals) to lyse the cells and initiate the luciferase reaction. Luminescence for both SEAP and luciferase was measured in a Packard TopCount. Luciferase activity was normalized to the SEAP control and transcriptional activation in the presence of a test substance was expressed as fold-activation over cells incubated in the absence of the substance. EC50 values were calculated using the XLfit program (ID Business Solutions Ltd. UK).

PPARγ [2] = molecular target: T2, PPARγ (Mus musculus, UniProt P37238); experiment: PPARγ radioligand binding assay (scintillation proximity, GST-PPARγ-LBD); details: SPA beads
T2 construct: made in house; host or cells: E. coli BL21(pLysS)
T2 sequence (P37238 204-505): T1 sequence (P37238 174-475 isoform P37238-2)
Excerpt: Background information on the performed assays can be found in: Nichols J S et al. “Development of a scintillation proximity assay for peroxisome proliferator-activated receptor gamma ligand binding domain”, (1998) Anal. Biochem. 257:112-119.
as §1
Induction, expression, and purification of GST-LBD fusion proteins were performed in E. coli strain BL21(pLysS) cells by standard methods (Ref: Current Protocols in Molecular Biology, Wiley Press, edited by Ausubel et al.).
Radioligand Binding Assay
PPARγ receptor binding was assayed in TKE50 (50 mM Tris-HCl, pH 8, 50 mM KCl, 2 mM EDTA, 0.1 mg/ml fatty acid-free BSA and 10 mM DTT). For each 96 well reaction an 140 ng equivalent of GST-PPARγ-LBD fusion protein was bound to 10 ug SPA beads (PharmaciaAmersham) in a final volume of 50 ul by shaking. The resulting slurry was incubated for 1 h at RT and centrifuged for 2 min at 1300 g. The supernatant containing unbound protein was removed and the semidry pellet containing the receptor-coated beads was resolved in 50 ul of TKE. For radioligand binding e.g. 10000 dpm 2(S)-(2-benzoyl-phenylamino)-3-{4-[1,1-ditritio-2-(5-methyl-2-phenyl-oxazol-4-yl)-ethoxy]-phenyl}-propionic acid in 50 ul were added, the reaction incubated at RT for 1 h and scintillation proximity counting performed. All binding assays were performed in 96 well plates and the amount of bound ligand measured on a Packard TopCount using OptiPlates (Packard). Nonspecific binding was determined in the presence of 10^−4 M unlabelled compound. Dose response curves were done in triplicates within a range of concentration from 10^−10 M to 10^−4 M.

PPARα = molecular target: T3, PPARα (Homo sapiens, UniProt Q07869); experiment: Luciferase transcriptional reporter gene assay, pFA-PPARα-LBD in BHK21 cells; type: cell-based; details: Gal4-PPARα-LBD luciferase reporter, 24 hours incubation
T3 construct: expressed in transfected cells; host or cells: BHK21 (ATCC CCL10)
T3 sequence (Q07869 167-468 limits assumed): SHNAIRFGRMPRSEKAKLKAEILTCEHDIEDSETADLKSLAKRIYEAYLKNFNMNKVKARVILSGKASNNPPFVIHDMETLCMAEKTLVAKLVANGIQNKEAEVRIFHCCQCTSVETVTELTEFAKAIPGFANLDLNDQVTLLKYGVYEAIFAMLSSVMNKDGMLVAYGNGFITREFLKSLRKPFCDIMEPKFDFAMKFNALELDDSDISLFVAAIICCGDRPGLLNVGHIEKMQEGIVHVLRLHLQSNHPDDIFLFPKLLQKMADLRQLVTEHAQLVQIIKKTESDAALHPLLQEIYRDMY
Excerpt: Full-length cDNA clones for human PPARα and mouse PPARγ were obtained by RT-PCR from human adipose and mouse liver cRNA, respectively, cloned into plasmid vectors and verified by DNA sequencing. […] To accomplish this, the portions of the cloned sequences encoding the LBDs were amplified from the full-length clones by PCR and then subcloned into the plasmid vectors. Final clones were verified by DNA sequence analysis.
as §2, §3

Row | SMILES | EC50 (PPARγ [1]) [nM] | IC50 (PPARγ [2]) [nM] | EC50 (PPARα) [nM]
1 | CCCN(Cc1ccccc1C(=O)O)c1ccc(OCCc2nc(-c3ccccc3)oc2C)cc1 [Example 6, 2-[({4-[2-(5-methyl-2-phenyl-oxazol-4-yl)-ethoxy]-phenyl}-propyl-amino)-methyl]-benzoic acid] | 1320 | 930 | 2700
2 | Cc1oc(-c2ccccc2)nc1CCOc1ccc(N(Cc2ccccc2C(=O)O)c2ccc(F)cc2)cc1 [Example 12, 2-[((4-fluoro-phenyl)-{4-[2-(5-methyl-2-phenyl-oxazol-4-yl)-ethoxy]-phenyl}-amino)-methyl]-benzoic acid] | 2320 | 1080 | 2590
3 | Cc1oc(-c2ccccc2)nc1CCOc1ccc(N(Cc2c(F)cccc2C(=O)O)c2ccccc2)cc1 [Example 18, 3-fluoro-2-[({4-[2-(5-methyl-2-phenyl-oxazol-4-yl)-ethoxy]-phenyl}-phenyl-amino)-methyl]-benzoic acid] | 1980 | 240 | 10000
4 | COc1cccc(CN(c2ccccc2)c2ccc(OCCc3nc(-c4ccccc4)oc3C)cc2)c1C(=O)O [Example 26, 2-methoxy-6-[({4-[2-(5-methyl-2-phenyl-oxazol-4-yl)-ethoxy]-phenyl}-phenyl-amino)-methyl]-benzoic acid] | 1410 | 980 | 2050
